One test concerns RAW264.7. Briefly: TRAP staining: RANKL-induced osteoclast differentiation, count of multinucleated TRAP+ cells. The format is cell-based. An excerpt: (§1) Les préostéoblastes primaires ont été isolés à partir de la calotte crânienne de rats Wistar nouveaux-nés par digestion enzymatique comme précédemment décrit [Declercq, H., Van den Vreken, N., De Maeyer, E., Verbeeck, R., Schacht, E., De Ridder, L., and Cornelissen, M. (2004). Isolation, proliferation and differentiation of osteoblastic cells to study cell/biomaterial interactions: comparison of different isolation techniques and source. Biomaterials 25, 757-68.]. Les précurseurs d'ostéoclastes RAW264.7 ont été obtenus auprès de l'ATCC (Manassas, VA, USA). Les préostéoblastes et les RAW264.7 ont été cultivés dans du milieu α-MEM (Invitrogen, Carlsbad, CA, USA) supplémenté avec 10% de SVF décomplémenté et de 100 unités/ml de pénicilline-streptomycine.
Pour la coloration TRAP, 60.000 cellules RAW264.7 ont été ensemencées dans des puits de plaques 12 puits pendant 12 heures puis traitées avec du DMSO/éthanol comme témoin ou de la fisétine (5 µM dans le DMSO) ou du DHA (50µM dans l'éthanol) ou la combinaison des deux (Fisétine 5 µM et DHA 50 µM) pendant 3 heures. Les cellules ont ensuite été induites à se différencier en présence de RANKL (50 ng/ml) avec du DMSO/éthanol ou de la fisétine (5 µM) ou du DHA (50 µM) ou la combinaison des deux (Fisétine 5 µM et DHA 50 µM) durant 4 jours avec un changement de milieux après 2 jours. De la BSA délipidée et sans endotoxines a été utilisée pour solubiliser le DHA avec un rapport 1/5 (BSA/DHA).
La coloration TRAP a été réalisée en utilisant le kit « leukocyte acid phosphatase » (Sigma-Aldrich) selon les recommandations du fournisseur après fixation des cellules. Les cellules TRAP+ multinucléées ont ensuite été comptées.

The next test relates to ostéocalcine. Briefly: Quantitative RT-PCR, osteoblast differentiation marker: osteocalcin. The format is cell-based, rats Wistar. To be noted: Rattus norvegicus; for activation at 5 µM: AA+βGP+Fisétine 5µM.
Description: as §1
L'extraction des ARN totaux (cellules et fémurs) a été effectuée en utilisant le réactif TRIzol, la transcription inverse (RT) a été réalisée à l'aide du kit de synthèse d'ADNc Dynamo (Thermo Scientific, Waltham, MA, USA) et l'analyse PCR en temps réel a été réalisée avec le Mastercycler ep Realplex2 (Eppendorf, Hambourg, Allemagne). Toutes les valeurs ont été normalisées par la GAPDH. Les séquences des oligos utilisés sont : ALP F 5'-GGCCAGCTACACCACAACA-3' / ALP R 5'-[…] -3' / OCN F 5'-AGACTCCGGCGCTACCTT -3' / OCN R 5'-[…]-3'/ COL1 F 5'-[…]-3' / COL1 R 5'-[…]-3' / GAPDH F 5'-[…]-3' / GAPDH R 5'-[…]-3'

The test system of test [1] is perte osseuse induite par ovariectomie. In words: Ovariectomy-induced bone loss: bone micro-architecture (micro-CT). In kind it is in vivo, souris C57BL/6J. Here is the method: (§2) Tout au long de l'étude, les animaux ont été logés dans un environnement contrôlé (12:12 h cycle lumière-obscurité, 20-22 ° C, 50-60% d'humidité relative, 1 souris par cage en plastique avec un accès libre à l'eau. Les souris C57BL/6J ont été livrées 2 semaines avant l'étude pour l'acclimatation à notre environnement sous régime standard semi-purifié. Pour toutes les expériences, les souris de 8 semaines (n=12/groupe) ont été gavées avec le véhicule (1% d'éthanol, 0,2% hydroxypropylcellulose dans de l'eau distillée) ou avec la fisétine (5 à 50 mg/kg dans le véhicule) pendant une semaine. Ensuite, pour l'expérience OVX, les souris ont été pseudo-opérées ou ovariectomisées bilatéralement et ont reçu quotidiennement par gavage le véhicule ou la fisétine pendant 4 semaines. A la fin de l'expérimentation, le sérum, les cornes utérines, les tibias et les fémurs ont été recueillis pour analyse. Pour l'expérience de perte osseuse induite par LPS, le véhicule (PBS) ou le LPS (sérotype 026: B6, 25mg/kg) ont été injectés par voie sous-cutanée au niveau de la calotte crânienne, une fois par semaine pendant 3 semaines sous anesthésie. Durant ces 3 semaines, les souris ont reçu soit le véhicule (1% d'éthanol, 0,2% hydroxypropylcellulose dans de l'eau distillée) soit la fisétine quotidiennement par gavage. A la fin de l'expérimentation, le sérum, les tibias et les fémurs ont été recueillis pour analyse. Des expériences similaires ont été conduites et arrêtés 24 heures après la première injection de LPS et les fémurs ont été prélevés pour extraction des ARNs et l'analyse en qRT-PCR.
Pour effectuer une mesure, l'échantillon a été monté sur un plateau tournant pouvant être déplacé automatiquement dans le sens axial (pas angulaire: 0,675°/reconstruction plage angulaire: 186.30°). Un filtre en aluminium (0,5 mm d'épaisseur) a été placé entre la source de rayons X et l'échantillon. La micro-architecture (spongieuse secondaire) a été analysée en utilisant le rayonnement X micro-CT SkyScan 1072 (BRUKER-microCT, Kontich, Belgique). Des photos de 1024 * 1024 pixels ont été obtenues en utilisant les paramètres 37kV et 215µA. Selon les paramètres de la caméra, les pixels mesurent 5.664µm menant à un voxel de 1.817 * 10-7mm^3. Le calcul des paramètres histomorphométriques a été réalisé en utilisant les logiciels ctan ® et Nrecon ® (version 1.11. Et 1.6.1.7 respectivement).

A further test relates to ostéocalcine sérique. Briefly: Ovariectomy-induced bone loss: serum osteocalcin (ELISA). The format is in vivo, souris C57BL/6J. To be noted: daily Fisétine 25mg/kg by gavage. Here is the method:
as §2, with “A la fin de l'expérimentation, le sérum, les tibias et les fémurs ont été recueillis pour analyse. Des expériences similaires ont été conduites et arrêtés 24 heures après la première injection de LPS et les fémurs ont été prélevés pour extraction des ARNs et l'analyse en qRT-PCR.” left out
(In general: An ELISA detects its analyte on a solid surface through an enzyme-linked reagent.)

Read-outs that look alike come from different tables or passages of the source.

For `O=c1c(O)c(-c2ccc(O)c(O)c2)oc2cc(O)ccc12` [Fisétine, 3,3',4',7-tétrahydroxyflavone], the inhibition (commonly how much of the control response was suppressed) at 5 µM with RAW264.7 (Mus musculus, RAW264.7, 96 h, Fisétine 5µM, RANKL 50 ng/ml, 4 days, vs RANKL condition, read-out: inhibition de l'induction par RANKL de la formation de cellules multinucléées TRAP+ (ostéoclastes)) is 45%. For the same compound, the “ostéoclastes/cm^2” value in the test on RAW264.7 (condition RANKL+Fisétine (5µM), RANKL alone 735+/-251) is 404+/-148 ostéoclastes/cm^2. Further, the activation at 1 µM in the test with ostéocalcine (168 h, AA+βGP+Fisétine 1 µM, J7, read-out: expression de l'ostéocalcine par rapport à la condition « AA+βGP seuls ») was 63%. The activation at 5 µM in the test with ostéocalcine (168 h, J7, read-out: expression de l'ostéocalcine par rapport à la condition « AA+βGP seuls ») was 177%. In the test on ostéocalcine (336 h, AA+βGP+Fisétine 1µM, J14, read-out: expression de l'ostéocalcine par rapport à la condition « AA+βGP seuls »), the activation at 1 µM came out at 63%. The activation at 5 µM in the test with ostéocalcine (336 h, J14, read-out: expression de l'ostéocalcine par rapport à la condition « AA+βGP seuls ») was found to be 131%. Moreover, in test [1] (OVX + Fisétine 25 mg/kg), the “augmentation de l'épaisseur des trabécules par rapport aux animaux OVX” value was 3,55%, the “augmentation du nombre de trabécules par rapport aux animaux OVX” value was 16,31% and the “augmentation du volume osseux/volume total par rapport aux animaux OVX” value was 20,37%. Moreover, the “Nombre de trabécules” value in test [1] (OVX + Fisétine 25mg/kg, OVX 1.90 ± 0.22) was determined as 2.21 ± 0.12 mm^-1. In addition, the “Volume osseux/Volume total” value in test [1] (OVX + Fisétine 25mg/kg, OVX 13.40 ± 1.74) is recorded as 16.13 ± 0.96%. Further, in test [1] (OVX + Fisétine 25mg/kg, OVX 70.35 ± 1.295), the “Epaisseur des trabécules” value turned out to be 72.85 ± 1.563 µm. Also, the “Espace inter-trabéculaire” value in test [1] (OVX + Fisétine 25mg/kg, OVX 285.68 ± 54,69) is 265.50 ± 29.41 µm. The “taux sérique d'ostéocalcine par rapport à la condition témoin « SH »” value with ostéocalcine sérique was “+61%”.

Values taken from patent publication EP2999467B1, “USE OF A COMBINATION OF TWO COMPOUNDS FOR THE TREATMENT AND/OR PREVENTION OF BONE DISORDERS” (Institut National de la Recherche Agronomique (INRA), priority 2013, dated 2014).
